Reference: ChEMBL document CHEMBL4308841, “Synthesis, in vitro antiproliferative activity, and kinase inhibitory effects of pyrazole-containing diarylureas and diarylamides” (Eur J Med Chem, 2018)

Columns and labels:
NCI-H226 = test: Growth inhibition of human NCI-H226 cells assessed as cell growth at 1 uM incubated for 48 hrs by sulforhodamine B assay relative to control; type: functional; conditions: NCI-H226, 48 h, read-out: Activity
U-251 = test: Growth inhibition of human U251 cells assessed as cell growth at 0.01 uM incubated for 48 hrs by sulforhodamine B assay relative to control; type: functional; conditions: U-251, 48 h, read-out: Activity
786-0 = test: Growth inhibition of human 786-0 cells incubated for 48 hrs by sulforhodamine B assay; type: functional, cell-based; conditions: 786-0, 48 h
MDA-MB-435 [1] = test: Growth inhibition of human MDA-MB-435 cells assessed as cell growth at 1 uM incubated for 48 hrs by sulforhodamine B assay relative to control; type: functional; conditions: MDA-MB-435, 48 h, read-out: Activity
T47D = test: Growth inhibition of human T47D cells assessed as cell growth at 0.01 uM incubated for 48 hrs by sulforhodamine B assay relative to control; type: functional; conditions: read-out: Activity
HCC 2998 = test: Growth inhibition of human HCC2998 cells assessed as cell growth at 1 uM incubated for 48 hrs by sulforhodamine B assay relative to control; type: functional; conditions: HCC 2998, 48 h, read-out: Activity
SW-620 = test: Growth inhibition of human SW620 cells assessed as cell growth at 0.01 uM incubated for 48 hrs by sulforhodamine B assay relative to control; type: functional; conditions: SW-620, 48 h, read-out: Activity
HCT-15 = test: Growth inhibition of human HCT15 cells assessed as cell growth at 100 uM incubated for 48 hrs by sulforhodamine B assay relative to control; type: functional; conditions: HCT-15, 48 h, read-out: Activity
M14 = test: Growth inhibition of human M14 cells assessed as cell growth at 0.1 uM incubated for 48 hrs by sulforhodamine B assay relative to control; type: functional; conditions: M14, 48 h, read-out: Activity
K562 = test: Growth inhibition of human K562 cells assessed as cell growth at 0.1 uM incubated for 48 hrs by sulforhodamine B assay relative to control; type: functional; conditions: K562, 48 h, read-out: Activity
OVCAR-8 = test: Growth inhibition of human OVCAR8 cells assessed as cell growth at 0.1 uM incubated for 48 hrs by sulforhodamine B assay relative to control; type: functional; conditions: OVCAR-8, 48 h, read-out: Activity
SNB-19 = test: Growth inhibition of human SNB19 cells assessed as cell growth at 0.01 uM incubated for 48 hrs by sulforhodamine B assay relative to control; type: functional; conditions: SNB-19, 48 h, read-out: Activity
MDA-MB-468 = test: Growth inhibition of human MDA-MB-468 cells incubated for 48 hrs by sulforhodamine B assay; type: functional, cell-based; conditions: MDA-MB-468, 48 h
MDA-MB-435 [2] = test: Growth inhibition of human MDA-MB-435 cells incubated for 48 hrs by sulforhodamine B assay; type: functional, cell-based; conditions: MDA-MB-435, 48 h
OVCAR-3 = test: Growth inhibition of human OVCAR3 cells assessed as cell growth at 100 uM incubated for 48 hrs by sulforhodamine B assay relative to control; type: functional; conditions: OVCAR-3, 48 h, read-out: Activity
OVCAR-5 = test: Growth inhibition of human OVCAR5 cells incubated for 48 hrs by sulforhodamine B assay; type: functional, cell-based; conditions: OVCAR-5, 48 h
OVCAR-4 [3] = test: Growth inhibition of human OVCAR4 cells assessed as cell growth at 0.01 uM incubated for 48 hrs by sulforhodamine B assay relative to control; type: functional; conditions: OVCAR-4, 48 h, read-out: Activity
A498 = test: Growth inhibition of human A498 cells incubated for 48 hrs by sulforhodamine B assay; type: functional, cell-based; conditions: A498, 48 h
MOLT-4 = test: Growth inhibition of human MOLT4 cells assessed as cell growth at 1 uM incubated for 48 hrs by sulforhodamine B assay relative to control; type: functional; conditions: MOLT-4, 48 h, read-out: Activity
SR = test: Growth inhibition of human SR cells assessed as cell growth at 0.01 uM incubated for 48 hrs by sulforhodamine B assay relative to control; type: functional; conditions: read-out: Activity
SK-MEL-2 = test: Growth inhibition of human SK-MEL-2 cells assessed as cell growth at 0.1 uM incubated for 48 hrs by sulforhodamine B assay relative to control; type: functional; conditions: SK-MEL-2, 48 h, read-out: Activity
TK-10 = test: Growth inhibition of human TK10 cells assessed as cell growth at 10 uM incubated for 48 hrs by sulforhodamine B assay relative to control; type: functional; conditions: TK-10, 48 h, read-out: Activity
OVCAR-4 [4] = test: Growth inhibition of human OVCAR4 cells incubated for 48 hrs by sulforhodamine B assay; type: functional, cell-based; conditions: OVCAR-4, 48 h
HT-29 = test: Growth inhibition of human HT-29 cells incubated for 48 hrs by sulforhodamine B assay; type: functional, cell-based; conditions: HT-29, 48 h
Hs-578T = test: Growth inhibition of human Hs578T cells assessed as cell growth at 1 uM incubated for 48 hrs by sulforhodamine B assay relative to control; type: functional; conditions: read-out: Activity
A549 = test: Growth inhibition of human A549/ATCC cells assessed as cell growth at 1 uM incubated for 48 hrs by sulforhodamine B assay relative to control; type: functional; conditions: A549, 48 h, read-out: Activity
LOX IMVI = test: Growth inhibition of human LOXIMVI cells incubated for 48 hrs by sulforhodamine B assay; type: functional
[5] = read-out: LC50 (the source's name)
[6] = read-out: pLC50 (the source's name) (converted)

O=C(Nc1cccc(-n2cc(-c3ccncc3)c(-c3cc(O)cc(Cl)c3)n2)c1)c1ccc(N2CCOCC2)c(C(F)(F)F)c1
growth at 1 µM (NCI-H226): 90% | growth at 0.01 µM (U-251): 97% | GI50 (786-0; read-out: GI50): 2.24 µM | CC50 (786-0; [5]): 41 µM | TGI (786-0; read-out: TGI): 10.1 µM | GI50 (786-0; read-out: pGI50 (converted)): 2.24 µM | CC50 (786-0; [6]): 40.7 µM | TGI (786-0; read-out: pTGI (converted)): 10 µM | growth at 1 µM (MDA-MB-435 [1]): 54% | growth at 0.01 µM (T47D): 97% | growth at 1 µM (HCC 2998): 70% | growth at 0.01 µM (SW-620): 103% | growth at 100 µM (HCT-15): -54% | growth at 0.1 µM (M14): 91% | growth at 0.1 µM (K562): 100% | growth at 0.1 µM (OVCAR-8): 101% | growth at 0.01 µM (SNB-19): 101% | IC50 (MDA-MB-468): 3.42 µM | GI50 (MDA-MB-468; read-out: GI50): 3.42 µM | CC50 (MDA-MB-468; [5]): > 100 µM | TGI (MDA-MB-468; read-out: TGI): 43.3 µM | GI50 (MDA-MB-468; read-out: pGI50 (converted)): 3.39 µM | CC50 (MDA-MB-468; [6]): > 100 µM | TGI (MDA-MB-468; read-out: pTGI (converted)): 43.7 µM | GI50 (MDA-MB-435 [2]; read-out: GI50): 2 µM | LC50 (MDA-MB-435 [2]; read-out: LC50): > 100 µM | TGI (MDA-MB-435 [2]; read-out: TGI): > 100 µM | GI50 (MDA-MB-435 [2]; read-out: pGI50 (converted)): 2.04 µM | LC50 (MDA-MB-435 [2]; read-out: pLC50 (converted)): > 100 µM | TGI (MDA-MB-435 [2]; read-out: pTGI (converted)): > 100 µM | growth at 100 µM (OVCAR-3): 30% | GI50 (OVCAR-5; read-out: GI50): 14.8 µM | CC50 (OVCAR-5; [5]): > 100 µM | TGI (OVCAR-5; read-out: TGI): 39.6 µM | GI50 (OVCAR-5; read-out: pGI50 (converted)): 14.8 µM | CC50 (OVCAR-5; [6]): > 100 µM | TGI (OVCAR-5; read-out: pTGI (converted)): 39.8 µM | growth at 0.01 µM (OVCAR-4 [3]): 100% | GI50 (A498; read-out: GI50): 1.94 µM | CC50 (A498; [5]): > 100 µM | TGI (A498; read-out: TGI): 73.2 µM | GI50 (A498; read-out: pGI50 (converted)): 19.5 µM | CC50 (A498; [6]): > 100 µM | TGI (A498; read-out: pTGI (converted)): 72.4 µM | growth at 1 µM (MOLT-4): 54% | growth at 0.01 µM (SR): 92% | growth at 0.1 µM (SK-MEL-2): 101% | growth at 10 µM (TK-10): 70.3% | GI50 (OVCAR-4 [4]; read-out: GI50): > 100 µM | CC50 (OVCAR-4 [4]; [5]): > 100 µM | TGI (OVCAR-4 [4]; read-out: TGI): > 100 µM | GI50 (OVCAR-4 [4]; read-out: pGI50 (converted)): > 100 µM | CC50 (OVCAR-4 [4]; [6]): > 100 µM | TGI (OVCAR-4 [4]; read-out: pTGI (converted)): > 100 µM | GI50 (HT-29; read-out: GI50): 3.03 µM | CC50 (HT-29; [5]): > 100 µM | TGI (HT-29; read-out: TGI): 11.3 µM | GI50 (HT-29; read-out: pGI50 (converted)): 3.02 µM | CC50 (HT-29; [6]): > 100 µM | TGI (HT-29; read-out: pTGI (converted)): 11.2 µM | growth at 1 µM (Hs-578T): 59% | growth at 1 µM (A549): 52% | GI50 (LOX IMVI; read-out: GI50): 1.03 µM | CC50 (LOX IMVI; [5]): > 100 µM | TGI (LOX IMVI; read-out: TGI): 48.1 µM | GI50 (LOX IMVI; read-out: pGI50 (converted)): 1.02 µM | CC50 (LOX IMVI; [6]): > 100 µM | TGI (LOX IMVI; read-out: pTGI (converted)): 4.57 µM
